This note sets out measurements from EP3530280B1, “VETERINARY COMPOSITION FOR MANUFACTURING A SEMINAL ADDITIVE USEFUL FOR ARTIFICIAL INSEMINATION IN ANIMALS” (Universidad De León, priority 2016, dated 2020).

The test system of the assay is swine. As to the kind of experiment: Field studies of semen additive in swine artificial insemination (fecundity, birth fertility, prolificacy). It counts as in vivo. To be noted: Experimental Groups, amount per dose as given in the Composition column. As to the method:
In order to examine the effect of the prepared pharmaceutical composition in Example 1 above, for use thereof in swine artificial insemination, field studies were carried out about the effects on fecundity, birth fertility and prolificacy (mean of the total piglets being born (either dead or alive) per delivery). Tables 1 and 2 show the results of the studies being carried out, observing how there are differences being statistically significant in all the experimental groups with respect to control groups.
The statistical characters of fecundity (%fecundity), prolificacy (N.T.), number of alive births (N.V.) and mortality (% of N.M. against N.T.), were tested on factorial ANOVA, LSD Fisher and SAS package (Statistical Analysis System). Table 1. Effects on fecundity and birth fertility

Where [1] appears, read: additive applied to seminal doses for swine artificial insemination.

As for Oxytocin, the “prolificacy (mean of the total piglets being born (either dead or alive) per delivery)” value (Mean ± e.s. (n)) is given as 14.30 ± 0.29 (154). Further, under setting [1], the “Birth Fertility (%)” value is 88.89% and the “Fecundity (%)” value is recorded as 90.26%.
